What was measured:
Type in all cases: in vivo
[1] = system: Alopecurus myosuroides (ALOMY); assay: Pre-emergence biological efficacy, glasshouse, 1000 g/ha, evaluated after 13 days (100=total damage to plant; 0=no damage to plant); details: Alopecurus myosuroides, 312 h, read-out: Percentage damage caused to weed species, pre-emergence, ALOMY; for pest or weed control at 1000 g/ha: rate 1,000 g/ha
Outline: (§1)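 Sowing: standard soil, pots. Growth: glasshouse, 24/16° C. day/night, 14 hours light, 65% humidity. Watering: twice daily.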

[2] = system: Amaranthus retroflexus (AMARE); assay: as above; details: Amaranthus retroflexus, 312 h, read-out: Percentage damage caused to weed species, pre-emergence, AMARE; for pest or weed control at 1000 g/ha: rate 1,000 g/ha
Outline: as §1

[3] = system: Echinochloa crus-galli (ECHCG); assay: as above; details: Echinochloa crus-galli, 312 h, read-out: Percentage damage caused to weed species, pre-emergence, ECHCG; for pest or weed control at 1000 g/ha: rate 1,000 g/ha
Outline: as §1

[4] = system: Ipomoea hederaceae (IPOHE); assay: as above; details: Ipomoea, 312 h, read-out: Percentage damage caused to weed species, pre-emergence, IPOHE; for pest or weed control at 1000 g/ha: rate 1,000 g/ha
Outline: as §1

Setaria faberi (SETFA) [5] = assay: as above; details: Setaria faberi, 312 h, read-out: Percentage damage caused to weed species, pre-emergence, SETFA; for pest or weed control at 1000 g/ha: rate 1,000 g/ha
Outline: as §1

Solanum nigrum (SOLNI) [6] = assay: as above; details: Solanum nigrum, 312 h, read-out: Percentage damage caused to weed species, pre-emergence, SOLNI; for pest or weed control at 1000 g/ha: rate 1,000 g/ha
Outline: as §1

[7] = system: Alopecurus myosuroides (ALOMY); assay: Post-emergence biological efficacy, glasshouse, 500 or 1000 g/ha, evaluated after 13 days (100=total damage to plant; 0=no damage to plant); details: Alopecurus myosuroides, 312 h, read-out: Percentage damage caused to weed species, post-emergence, ALOMY; for pest or weed control at 1000 g/ha: rate 1,000 g/ha
Outline: (§2)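 Sow seeds in standard potting soil. Treat after emergence. Keep treated plants in the glasshouse at 24° C. by day and 16° C. by night, with a 14-hour photoperiod, 65% humidity and two waterings daily.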

[8] = system: Amaranthus retroflexus (AMARE); assay: as above; details: Amaranthus retroflexus, 312 h, read-out: Percentage damage caused to weed species, post-emergence, AMARE; for pest or weed control at 1000 g/ha: rate 1,000 g/ha
Outline: as §2

[9] = system: Echinochloa crusgaffi (ECHCG); assay: as above; details: Echinochloa, 312 h, read-out: Percentage damage caused to weed species, post-emergence, ECHCG; for pest or weed control at 1000 g/ha: rate 1,000 g/ha
Outline: as §2

[10] = system: Ipomoea hederaceae (IPOHE); assay: as above; details: Ipomoea, 312 h, read-out: Percentage damage caused to weed species, post-emergence, IPOHE; for pest or weed control at 1000 g/ha: rate 1,000 g/ha
Outline: as §2

Setaria faberi (SETFA) [11] = assay: as above; details: Setaria faberi, 312 h, read-out: Percentage damage caused to weed species, post-emergence, SETFA; for pest or weed control at 1000 g/ha: rate 1,000 g/ha
Outline: as §2

Solanum nigrum (SOLNI) [12] = assay: as above; details: Solanum nigrum, 312 h, read-out: Percentage damage caused to weed species, post-emergence, SOLNI; for pest or weed control at 1000 g/ha: rate 1,000 g/ha
Outline: as §2

Compound | pest or weed control at 1000 g/ha [1] [%] | pest or weed control at 1000 g/ha [2] [%] | pest or weed control at 1000 g/ha [3] [%] | pest or weed control at 1000 g/ha [4] [%] | pest or weed control at 1000 g/ha (Setaria faberi (SETFA) [5]) [%] | pest or weed control at 1000 g/ha (Solanum nigrum (SOLNI) [6]) [%] | pest or weed control at 1000 g/ha [7] [%] | pest or weed control at 1000 g/ha [8] [%] | pest or weed control at 1000 g/ha [9] [%] | pest or weed control at 1000 g/ha [10] [%] | pest or weed control at 1000 g/ha (Setaria faberi (SETFA) [11]) [%] | pest or weed control at 1000 g/ha (Solanum nigrum (SOLNI) [12]) [%] | other results
COC(=O)c1nc(-c2ccc(Cl)c(OC)c2F)cc2c1c(C)cn2C(=O)OC [Compound 38-64, 6-(4-Chloro-2-fluoro-3-methoxyphenyl)-1,4-di(methoxycarbonyl)-3-methyl-1H-pyrrolo[3,2-c]pyridine] | 0 | 0 | 0 | 0 | 0 | 0 | 10 | 0 | 0 | 20 | 10 | 10 | 
COC(=O)c1nc(-c2ccc(Cl)c(OC)c2F)cc2c1c(C)cn2S(=O)(=O)c1ccc(C)cc1 [Compound 40-64, 6-(4-Chloro-2-fluoro-3-methoxyphenyl)-4-methoxycarbonyl-3-methyl-1-(4-methylphenyl-sulphonyl)-1H-pyrrolo[3,2-c]pyridine] | 0 | 0 | 10 | 0 | 10 | 40 | 0 | 0 | 0 | 50 | 0 | 60 | 
C=C1c2c(nc(-c3ccc(Cl)c(OC)c3F)nc2C(=O)OC)NCC1(C)C [Compound 71-180, 2-(4-Chloro-2-fluoro-3-methoxyphenyl)-6,6-dimethyl-4-methoxycarbonyl-5-methylene-5,6,7,8-tetrahydro-pyrido[2,3-d]pyrimidine] |  |  |  |  |  |  |  |  |  |  |  |  | pest or weed control at 500 g/ha ([1]; rate 500 g/ha): 0%; pest or weed control at 500 g/ha ([2]; rate 500 g/ha): 0%; pest or weed control at 500 g/ha ([3]; rate 500 g/ha): 0%; pest or weed control at 500 g/ha ([4]; rate 500 g/ha): 0%; pest or weed control at 500 g/ha (Setaria faberi (SETFA) [5]; rate 500 g/ha): 0%; pest or weed control at 500 g/ha (Solanum nigrum (SOLNI) [6]; rate 500 g/ha): 0%; pest or weed control at 500 g/ha ([7]; rate 500 g/ha): 0%; pest or weed control at 500 g/ha ([8]; rate 500 g/ha): 0%; pest or weed control at 500 g/ha ([9]; rate 500 g/ha): 0%; pest or weed control at 500 g/ha ([10]; rate 500 g/ha): 40%; pest or weed control at 500 g/ha (Setaria faberi (SETFA) [11]; rate 500 g/ha): 0%; pest or weed control at 500 g/ha (Solanum nigrum (SOLNI) [12]; rate 500 g/ha): 20%
COC(=O)c1nc(-c2ccc(Cl)c(OC)c2F)nc2c1N(Cc1ccccc1)C(C)N2Cc1ccccc1 (stereo not drawn) [Compound 81-46, 2-(4-chloro-2-fluoro-3-methoxyphenyl)-7,9-dibenzyl-6-methoxycarbonyl-8-methyl-8,9-dihydro-7H-purine] | 0 | 0 | 0 | 0 | 0 | 0 | 0 | 0 | 0 | 0 | 10 | 10 | 
COC(=O)c1nc(-c2ccc(Cl)c(OC)c2F)nc2c1N(Cc1ccc(OC)cc1OC)C(C)N2Cc1ccc(OC)cc1OC (stereo not drawn) [Compound 83-48, 2-(4-Chloro-2-fluoro-3-methoxyphenyl)-7,9-bis(2,4-dimethoxyphenyl-methyl)-6-methoxycarbonyl-8-methyl-8,9-dihydro-7H-purine] | 0 | 0 | 0 | 0 | 0 | 0 | 20 | 0 | 20 | 10 | 20 | 20 | 

Source: patent US20120202690A1, “HERBICIDAL COMPOUNDS” (SYNGENTA LIMITED, priority 2009, published 2012)
